The source of these data is ChEMBL document CHEMBL2021851, “Synthesis and SAR studies of imidazo-[1,2-a]-pyrazine Aurora kinase inhibitors with improved off-target kinase selectivity” (Bioorg Med Chem Lett, 2012).

A value given as a limit tells only on which side of the number the result lay.

The target of one assay is T1, Aurora kinase A (Homo sapiens, UniProt O14965).
T1 sequence (O14965 whole entry): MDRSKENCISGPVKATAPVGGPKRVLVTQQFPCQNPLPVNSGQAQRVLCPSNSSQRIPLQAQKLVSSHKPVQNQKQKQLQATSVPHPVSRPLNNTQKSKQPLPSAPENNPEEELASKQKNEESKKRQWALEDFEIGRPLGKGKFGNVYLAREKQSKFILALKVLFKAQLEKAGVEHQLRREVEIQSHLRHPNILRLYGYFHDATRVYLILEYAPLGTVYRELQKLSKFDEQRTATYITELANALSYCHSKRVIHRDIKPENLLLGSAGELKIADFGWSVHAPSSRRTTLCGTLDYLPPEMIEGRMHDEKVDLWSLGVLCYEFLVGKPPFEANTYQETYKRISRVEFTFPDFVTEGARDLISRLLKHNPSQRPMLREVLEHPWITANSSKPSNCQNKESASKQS
Description: Inhibition of aurora A kinase using 5TAMRA-GRTGRRNSICOOH as substrate by fluorescent assay.

Assay [1] concerns the target T2, Aurora kinase B (Homo sapiens, UniProt Q96GD4). Description: Inhibition of aurora B kinase using 5TAMRA-GRTGRRNSICOOH as substrate by fluorescent assay.
In assay [2] the target is T2, Aurora kinase B. Description: Inhibition of aurora B kinase in human HCT116 cells assessed as inhibition of histone H3 phosphorylation incubated for 1 hr by Hoechst 33342 staining based microscopic analysis. The assay is classed as cell-based, HCT-116.

T2 sequence (Q96GD4 whole entry): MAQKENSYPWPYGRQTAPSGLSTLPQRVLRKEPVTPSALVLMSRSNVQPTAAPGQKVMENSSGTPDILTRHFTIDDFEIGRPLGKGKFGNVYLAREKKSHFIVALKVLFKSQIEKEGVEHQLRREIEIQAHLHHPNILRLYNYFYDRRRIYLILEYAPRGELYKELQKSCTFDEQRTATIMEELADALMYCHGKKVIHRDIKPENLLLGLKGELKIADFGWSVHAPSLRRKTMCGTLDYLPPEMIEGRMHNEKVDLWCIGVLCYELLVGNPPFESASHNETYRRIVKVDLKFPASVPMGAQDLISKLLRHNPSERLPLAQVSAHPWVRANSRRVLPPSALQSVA

For `Cc1cn2c(-c3cnn(CC(=O)O)c3)cnc2c(Nc2cc(CN3CCCCC3)ns2)n1`, the results for the IC50 at Aurora kinase A and against Aurora kinase B [1] were 1830 nM and 363 nM, respectively.
For `Cc1cn2c(-c3cnn(CC(=O)O)c3)cnc2c(Nc2cc(CN3CCCC(C)C3)ns2)n1` (stereo not given), the IC50 was 836 nM against Aurora kinase A and 146 nM against Aurora kinase B [1].
On to `Cc1cn2c(-c3cnn(CC(N)=O)c3)cnc2c(Nc2cc(CN3CCCCC3)ns2)n1`, for which the IC50 at Aurora kinase A was found to be 1570 nM; against Aurora kinase B [1], 28 nM. The EC50 on Aurora kinase B [2] was over 1000 nM.
Turning to `CNC(=O)Cn1cc(-c2cnc3c(Nc4cc(CN5CCCCC5)ns4)nc(C)cn23)cn1`, the results for the IC50 against Aurora kinase A and at Aurora kinase B [1] were over 3000 nM and 193 nM, respectively.
As for `Cc1cn2c(-c3cnn(CC(=O)NCCC(C)C)c3)cnc2c(Nc2cc(CN3CCCCC3)ns2)n1`, the IC50 against Aurora kinase A came to 1800 nM; against Aurora kinase B [1], 44 nM. The EC50 at Aurora kinase B [2] is over 1000 nM.
In the case of `Cc1cn2c(-c3cnn(CC(=O)N(C)C)c3)cnc2c(Nc2cc(CN3CCCCC3)ns2)n1`, the IC50 against Aurora kinase A and against Aurora kinase B [1] was over 3000 nM throughout.
As to `Cc1cn2c(-c3cnn(CC(=O)NCCN(C)C)c3)cnc2c(Nc2cc(CN3CCCC(C)C3)ns2)n1` (stereo not given), the IC50 was over 3000 nM on Aurora kinase A and 761 nM against Aurora kinase B [1].
On to `Cc1cn2c(-c3cnn(CC(=O)N4CCOCC4)c3)cnc2c(Nc2cc(CN3CCCCC3)ns2)n1`, for which the IC50 at Aurora kinase A and against Aurora kinase B [1] was over 3000 nM each time.
For the compound `Cc1cn2c(-c3cnn(CC(=O)NCc4ccccc4)c3)cnc2c(Nc2cc(CN3CCCC(C)C3)ns2)n1` (stereo not given), the values for the IC50 on Aurora kinase A and against Aurora kinase B [1] were 21 nM and at most 13 nM, respectively. Besides, the EC50 at Aurora kinase B [2] came to 129 nM.
Regarding `Cc1cn2c(-c3cnn(CC(=O)Nc4ccccc4)c3)cnc2c(Nc2cc(CN3CCCC(C)C3)ns2)n1` (stereo not given), the IC50 against Aurora kinase A stood at 34 nM; against Aurora kinase B [1], 51 nM. In addition, the EC50 on Aurora kinase B [2] amounted to 327 nM.
`Cc1cn2c(-c3cnn(CC(=O)N(C)Cc4ccccc4)c3)cnc2c(Nc2cc(CN3CCCC(C)C3)ns2)n1` (stereo not given): the figures for the IC50 at Aurora kinase A and against Aurora kinase B [1] were 1630 nM and 261 nM, respectively.
With `Cc1cn2c(-c3cnn(Cc4nc5ccccc5[nH]4)c3)cnc2c(Nc2cc(CN3CCCC(C)C3)ns2)n1` (stereo not given), the figures for the IC50 against Aurora kinase A and at Aurora kinase B [1] were 18 nM and at most 13 nM, respectively. For the same compound, on Aurora kinase B [2], the EC50 stood at 534 nM.
Regarding `Cc1cn2c(-c3cnn(Cc4nc(-c5ccccc5)no4)c3)cnc2c(Nc2cc(CN3CCCCC3)ns2)n1`, the IC50 against Aurora kinase A is at most 4 nM; at Aurora kinase B [1] it was at most 13 nM. The EC50 at Aurora kinase B [2] is over 1000 nM.
For the compound `Cc1cn2c(-c3cnn(CC(=O)NCc4ccncc4)c3)cnc2c(Nc2cc(CN3CCCC(C)C3)ns2)n1` (stereo not given), the IC50 was determined as 2450 nM against Aurora kinase A and 1110 nM against Aurora kinase B [1].
On to `Cc1cn2c(-c3cnn(CC(=O)NCc4ncco4)c3)cnc2c(Nc2cc(CN3CCCC(C)C3)ns2)n1` (stereo not given), for which the IC50 on Aurora kinase A came out at 168 nM; against Aurora kinase B [1], 178 nM.
On to `Cc1cn2c(-c3cnn(CC(=O)NCc4ccco4)c3)cnc2c(Nc2cc(CN3CCCC(C)C3)ns2)n1` (stereo not given), for which the IC50 on Aurora kinase A was 213 nM; against Aurora kinase B [1], 70 nM.
For `Cc1cn2c(-c3cnn(CC(=O)Nc4ccccc4F)c3)cnc2c(Nc2cc(CN3CCCCC3)ns2)n1`, the IC50 against Aurora kinase A came to 198 nM; at Aurora kinase B [1], 35 nM. Moreover, the EC50 on Aurora kinase B [2] is 388 nM.
Take `Cc1cn2c(-c3cnn(CC(=O)Nc4cccc(F)c4)c3)cnc2c(Nc2cc(CN3CCCCC3)ns2)n1`: the figures for the IC50 at Aurora kinase A and on Aurora kinase B [1] were 340 nM and at most 13 nM, respectively. Further, at Aurora kinase B [2], the EC50 was determined as 892 nM.
Taken in the same sequence, the figures for `Cc1cn2c(-c3cnn(CC(=O)Nc4ccc(F)cc4)c3)cnc2c(Nc2cc(CN3CCCCC3)ns2)n1` were 53 nM, 30 nM and 412 nM.
Take `Cc1cn2c(-c3cnn(CC(=O)Nc4cc(F)cc(F)c4)c3)cnc2c(Nc2cc(CN3CCCCC3)ns2)n1`: the results for the IC50 against Aurora kinase A and against Aurora kinase B [1] were 1220 nM and 94 nM, respectively. In addition, the EC50 at Aurora kinase B [2] was determined as 2380 nM.
The like results for `Cc1cn2c(-c3cnn(CC(=O)Nc4nccs4)c3)cnc2c(Nc2cc(CN3CCCC(C)C3)ns2)n1` (stereo not given) were, in that order, 100 nM, at most 13 nM and over 1000 nM.
On to `Cc1cn2c(-c3cnn(CC(=O)Nc4cccnn4)c3)cnc2c(Nc2cc(CN3CCCC(C)C3)ns2)n1` (stereo not given), for which the figures for the IC50 against Aurora kinase A and against Aurora kinase B [1] were 638 nM and 45 nM, respectively. Besides, the EC50 on Aurora kinase B [2] amounted to 951 nM.
Take `Cc1cn2c(-c3cnn(CC(=O)Nc4cccnc4)c3)cnc2c(Nc2cc(CN3CCCC(C)C3)ns2)n1` (stereo not given): the half-maximal inhibitory concentration (IC50) on Aurora kinase A was found to be 186 nM; against Aurora kinase B [1], 118 nM.
With `Cc1cn2c(-c3cnn(CC(=O)Nc4ccncc4O)c3)cnc2c(Nc2cc(CN3CCCC(C)C3)ns2)n1` (stereo not given), the IC50 was determined as 239 nM against Aurora kinase A and 282 nM on Aurora kinase B [1].
With `Cc1cn2c(-c3cnn(Cc4noc(-c5ccccc5)n4)c3)cnc2c(Nc2cc(CN3CCCCC3)ns2)n1`, the results for the IC50 against Aurora kinase A and on Aurora kinase B [1] were at most 4 nM and at most 13 nM, respectively. Also, the EC50 at Aurora kinase B [2] was over 1000 nM.
On to `Cc1cn2c(-c3cnn(Cc4nc(-c5ccccc5)c[nH]4)c3)cnc2c(Nc2cc(CN3CCCCC3)ns2)n1`, for which the IC50 at Aurora kinase A was 583 nM; against Aurora kinase B [1] it was 21 nM. Further, on Aurora kinase B [2], the EC50 came out at 887 nM.
The like results for `Cc1cn2c(-c3cnn(CC(=O)NCc4ccccc4F)c3)cnc2c(Nc2cc(CN3CCCCC3)ns2)n1` were, in that order, 44 nM, at most 13 nM and 469 nM.
As for `Cc1cn2c(-c3cnn(CC(=O)NCc4cccc(F)c4)c3)cnc2c(Nc2cc(CN3CCCCC3)ns2)n1`, the IC50 against Aurora kinase A is 30 nM; against Aurora kinase B [1] it was at most 13 nM. In addition, the EC50 on Aurora kinase B [2] worked out at 234 nM.
The like results for `Cc1cn2c(-c3cnn(CC(=O)NCc4ccc(F)cc4)c3)cnc2c(Nc2cc(CN3CCCCC3)ns2)n1` were, in that order, 40 nM, at most 13 nM and 416 nM.
`Cc1cn2c(-c3cnn(CC(=O)NCc4cccc(F)c4F)c3)cnc2c(Nc2cc(CN3CCCCC3)ns2)n1`: the figures for the IC50 on Aurora kinase A and against Aurora kinase B [1] were 45 nM and at most 13 nM, respectively. In addition, the EC50 on Aurora kinase B [2] is 870 nM.
As to `Cc1cn2c(-c3cnn(CC(=O)NCc4cc(F)cc(F)c4)c3)cnc2c(Nc2cc(CN3CCCCC3)ns2)n1`, the IC50 against Aurora kinase A is 22 nM; against Aurora kinase B [1], at most 13 nM. For the same compound, at Aurora kinase B [2], the EC50 is 389 nM.
On to `Cc1cn2c(-c3cnn(CC(=O)NCc4cccc(C(F)(F)F)c4)c3)cnc2c(Nc2cc(CN3CCCC(C)C3)ns2)n1` (stereo not given), for which the IC50 on Aurora kinase A worked out at 413 nM; at Aurora kinase B [1] it was 35 nM. Also, the EC50 on Aurora kinase B [2] is over 1000 nM.
Turning to `Cc1cn2c(-c3cnn(CC(=O)NCc4ccc(C(F)(F)F)cc4)c3)cnc2c(Nc2cc(CN3CCCC(C)C3)ns2)n1` (stereo not given), the half-maximal inhibitory concentration (IC50) against Aurora kinase A was over 3000 nM; against Aurora kinase B [1] it was 175 nM.
With `Cc1cn2c(-c3cnn(CC(=O)NCc4cccc(N(C)C)c4)c3)cnc2c(Nc2cc(CN3CCCC(C)C3)ns2)n1` (stereo not given), the figures for the IC50 against Aurora kinase A and against Aurora kinase B [1] were 859 nM and 155 nM, respectively.
As to `COc1cccc(CNC(=O)Cn2cc(-c3cnc4c(Nc5cc(CN6CCCC(C)C6)ns5)nc(C)cn34)cn2)c1` (stereo not given), the IC50 amounted to 57 nM against Aurora kinase A and 41 nM at Aurora kinase B [1]. Also, the EC50 at Aurora kinase B [2] was found to be 442 nM.
Regarding `COc1ccc(CNC(=O)Cn2cc(-c3cnc4c(Nc5cc(CN6CCCC(C)C6)ns5)nc(C)cn34)cn2)cc1` (stereo not given), the IC50 against Aurora kinase A came out at 1930 nM; at Aurora kinase B [1], 161 nM.
Taken in the same sequence, the figures for `Cc1cn2c(-c3cnn(CC(=O)NCc4cccnc4)c3)cnc2c(Nc2cc(CN3CCCC(C)C3)ns2)n1` (stereo not given) were 434 nM and 439 nM.
